In one data set the test system is NLRP3 inflammasome. Put plainly: cytokines released into the culture medium after LPS+ATP activation (ELISA). In kind it is cell-based. The note with it: for IL-1β cytokine release: in vitro treatment, Figure 9; for IC50: estimated inhibitory capacity. The protocol: (§1) For biological assays, the THP-1 cell line (monocytes) was used and differentiated into macrophages using phorbol-12-myristate-13-acetate (PMA). They were then stimulated with 200 ng/mL ultrapure LPS for 4 hours, minus the negative control condition, to activate NLRP3 expression. At the same time, the necessary volume of the starting stock of each compound to be tested was added to reach the test concentration. After 4 h incubation at 37 °C, 5 mM ATP was added […] and incubated for 30 min to activate NLRP3 assembly. For NLRP1 activation, Valboropro, a specific inducer of this protein was used at 1µM for 24 hours. Protein expression levels were studied by western blot as a proteomic study and inflammation levels by determination of cytokines released into the medium by immunoassay techniques (ELISA).

In a further data set the target is T1, NEK7 to NLRP3 (Homo sapiens, UniProt Q96P20).
T1 construct: For biological assays, the THP-1 cell line (monocytes) was used; endogenous in cells
T1 sequence (Q96P20 whole entry): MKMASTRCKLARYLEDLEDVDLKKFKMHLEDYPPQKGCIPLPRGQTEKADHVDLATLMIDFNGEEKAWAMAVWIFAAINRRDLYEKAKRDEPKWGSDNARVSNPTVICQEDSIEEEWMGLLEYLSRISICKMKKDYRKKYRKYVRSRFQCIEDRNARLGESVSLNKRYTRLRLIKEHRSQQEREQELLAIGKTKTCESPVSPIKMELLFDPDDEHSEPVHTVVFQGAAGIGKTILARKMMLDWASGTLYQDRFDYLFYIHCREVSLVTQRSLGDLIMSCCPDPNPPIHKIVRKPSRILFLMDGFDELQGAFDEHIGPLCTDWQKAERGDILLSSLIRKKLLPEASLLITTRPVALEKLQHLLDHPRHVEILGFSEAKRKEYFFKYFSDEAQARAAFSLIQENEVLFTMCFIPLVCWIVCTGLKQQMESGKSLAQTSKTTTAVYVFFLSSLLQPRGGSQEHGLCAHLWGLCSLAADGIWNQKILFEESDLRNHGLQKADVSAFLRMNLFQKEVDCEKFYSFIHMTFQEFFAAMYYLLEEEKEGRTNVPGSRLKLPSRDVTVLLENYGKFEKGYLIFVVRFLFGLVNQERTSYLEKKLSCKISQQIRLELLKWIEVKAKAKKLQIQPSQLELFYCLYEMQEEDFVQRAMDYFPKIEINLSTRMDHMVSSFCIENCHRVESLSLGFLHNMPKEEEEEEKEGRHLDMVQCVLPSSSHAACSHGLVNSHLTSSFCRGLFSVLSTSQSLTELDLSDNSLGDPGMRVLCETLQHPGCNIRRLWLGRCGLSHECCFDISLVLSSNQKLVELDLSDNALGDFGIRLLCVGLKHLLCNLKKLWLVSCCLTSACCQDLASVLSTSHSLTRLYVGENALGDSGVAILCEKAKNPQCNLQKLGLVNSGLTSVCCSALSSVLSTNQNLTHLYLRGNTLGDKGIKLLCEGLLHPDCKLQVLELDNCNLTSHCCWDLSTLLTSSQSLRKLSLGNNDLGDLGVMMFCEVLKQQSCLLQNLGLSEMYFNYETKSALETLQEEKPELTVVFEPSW
Put plainly: NEK7 co-immunoprecipitation. As to conditions: Figure 7. In kind it is binding. From the text:
One of the possible mechanisms for NLRP3 inhibition is the inhibition of its binding to NEK7, since it has been shown that NEK7 interacts with NLRP3 to modulate NLRP3 inflammasome activation.

A further data set has as its system THP-1 cell line. Put plainly: in vitro toxicity (cell viability). As to conditions: regardless of the dose tested; Figure 6. In kind it is cell-based.
A short description of data set [1]: ageing mouse model (age-related metabolic dysfunction). In kind it is in vivo, C57BL/6J mice. The protocol:
(§2) For a better characterization of the effect of C3, the inventors determined its effect in two in vivo models: ageing mice (to evaluate the effect in age-related metabolic dysfunction), and ovarian aging mice (to evaluate the effect in infertility because of ovarian aging).
18-month-old C57BL/6J mice were treated with C3 (10 mg/Kg/day i.p.) or with a vehicle solution (saline) for over 4 weeks.

A further data set deals with T2, NLRP3 (Homo sapiens, UniProt Q96P20).
T2 construct: the THP-1 cell line (monocytes) was used and differentiated into macrophages; endogenous in cells; host or cells: THP-1 monocytes differentiated into macrophages with PMA
T2 sequence (Q96P20 whole entry): as above
Put plainly: in vitro model of NLRP3 induction (LPS + ATP) in PMA-differentiated THP-1 macrophages, protein expression by western blot. In kind it is cell-based. The protocol:
as §1
(§3) The inventors of the present invention evaluated the inhibitory effects of compound C3 in an in vitro model of NLRP3 induction (LPS + ATP), and in an […] model of NLRP1 induction (ValboroPro or Vbp).
(In general: In western blotting, separated proteins are transferred to a membrane and probed.)

Data set [2] is described as follows: ovarian ageing mouse model. Format: in vivo, mice.
Description: as §2
The second model used to evaluate the effect of C3 was related to ovarian aging. The reason behind this is that NLRP1 and NLRP3 is over-expressed during ovarian ageing (Figure 15).
For this, the inventors used 9-month-old adult mice to which C3 was administered for one month.

Data set [3] relates to AIM-2, NLRP2, NLRC3 or NLRC4. Put plainly: expression of other inflammasome proteins (western blot, Figure 5). In kind it is cell-based. The method, then:
as §1
This is reflected by the increased ability of C3 to inhibit the expression of NLRP1, NLRP3, IL-1β and IL-18 compared to MCC950 and C5 (Figure 5 and Figure 8).

The target in the next data set is T3, NLRP1 (Homo sapiens, UniProt Q9C000).
T3 construct: the THP-1 cell line (monocytes) was used and differentiated into macrophages; endogenous in cells; host or cells: THP-1 monocytes differentiated into macrophages with PMA
T3 sequence (Q9C000 1-1473): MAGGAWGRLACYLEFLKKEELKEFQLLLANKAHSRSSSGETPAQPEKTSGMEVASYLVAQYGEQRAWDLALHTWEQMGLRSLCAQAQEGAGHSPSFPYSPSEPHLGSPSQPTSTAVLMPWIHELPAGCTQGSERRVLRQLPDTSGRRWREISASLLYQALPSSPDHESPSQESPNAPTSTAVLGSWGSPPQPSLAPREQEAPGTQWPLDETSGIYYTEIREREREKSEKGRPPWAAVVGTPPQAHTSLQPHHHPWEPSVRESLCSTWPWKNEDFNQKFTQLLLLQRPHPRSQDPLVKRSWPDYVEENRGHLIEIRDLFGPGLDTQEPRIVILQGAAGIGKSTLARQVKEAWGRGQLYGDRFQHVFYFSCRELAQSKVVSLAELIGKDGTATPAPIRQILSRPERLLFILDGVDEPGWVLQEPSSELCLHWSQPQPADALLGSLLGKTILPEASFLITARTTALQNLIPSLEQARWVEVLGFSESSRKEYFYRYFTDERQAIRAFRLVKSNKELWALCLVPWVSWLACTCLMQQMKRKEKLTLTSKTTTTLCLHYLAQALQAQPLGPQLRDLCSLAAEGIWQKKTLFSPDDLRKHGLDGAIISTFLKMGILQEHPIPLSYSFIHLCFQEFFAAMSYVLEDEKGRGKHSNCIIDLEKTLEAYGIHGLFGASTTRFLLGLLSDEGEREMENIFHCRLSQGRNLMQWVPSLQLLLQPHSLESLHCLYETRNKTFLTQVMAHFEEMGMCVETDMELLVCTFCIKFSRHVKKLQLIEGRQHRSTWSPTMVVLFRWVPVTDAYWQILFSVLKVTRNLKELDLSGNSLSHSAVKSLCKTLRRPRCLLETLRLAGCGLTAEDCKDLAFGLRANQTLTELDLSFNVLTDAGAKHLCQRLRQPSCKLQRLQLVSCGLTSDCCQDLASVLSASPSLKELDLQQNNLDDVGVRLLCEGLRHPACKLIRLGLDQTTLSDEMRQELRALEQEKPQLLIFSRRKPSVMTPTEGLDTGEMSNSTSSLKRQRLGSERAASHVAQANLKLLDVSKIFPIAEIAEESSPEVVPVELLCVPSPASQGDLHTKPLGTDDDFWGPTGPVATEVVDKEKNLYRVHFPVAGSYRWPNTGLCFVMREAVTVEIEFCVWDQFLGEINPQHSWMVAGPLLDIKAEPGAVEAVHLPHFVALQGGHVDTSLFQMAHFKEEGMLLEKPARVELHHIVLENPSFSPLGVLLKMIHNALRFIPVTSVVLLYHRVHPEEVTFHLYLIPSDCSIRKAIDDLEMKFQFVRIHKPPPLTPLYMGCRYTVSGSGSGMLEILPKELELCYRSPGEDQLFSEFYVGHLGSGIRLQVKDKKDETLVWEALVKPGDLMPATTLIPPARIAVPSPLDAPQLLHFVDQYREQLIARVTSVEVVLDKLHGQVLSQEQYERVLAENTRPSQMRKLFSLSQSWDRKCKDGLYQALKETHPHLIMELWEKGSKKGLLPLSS
Put plainly: in vitro model of NLRP1 induction (ValboroPro) in THP-1 macrophages, protein expression by western blot. In kind it is cell-based. As to conditions: ValboroPro (Vbp) induction; dose-dependent; Figure 3. The method, then: as §1, §3

The mark [4] stands for this setting: 18-month-old mice, 10 mg/Kg/day i.p., over 4 weeks, vs vehicle, Figure 10.
[5] abbreviates: ageing mice, 10 mg/Kg/day i.p., Figure 12.
The mark [6] stands for this setting: microscopic liver sections, Figure 12.
Where [7] appears, read: old mice, 10 mg/Kg/day i.p., Figure 11.
The mark [8] stands for this setting: 9-month-old mice, administered for one month, Figure 13.
[9] abbreviates: histological staining, vs vehicle, Figure 14.

Like-named read-outs stand apart in the source and are kept apart here.

Consider `COc1ccc(CNS(C)(=O)=O)cc1` [Compound C1, N-(4-methoxybenzyl) methanesulfonamide], for which the IL-1β cytokine release result in the data set on NLRP3 inflammasome is given as “reduction”.

For the compound `CS(=O)(=O)NCc1ccc2c(c1)OCO2` [Compound C2, N-(4,5-methylenedioxybenzyl) methanesulfonamide], the IL-1β cytokine release entry with NLRP3 inflammasome was “reduction”.

Take `CS(=O)(=O)NCc1cccc2ccccc12` [Compound C3, N-(naphthalen-1-ylmethyl) methanesulfonamide]: on NEK7 to NLRP3, the “binding of NEK7 to NLRP3” value is on record as “inhibited the binding”. For the same compound, in the data set with THP-1 cell line, the cell viability entry is “above 85%”. In data set [1] (setting [4]), the abdominal fat entry is reported as “significantly reduced” and the body weight result is “significantly reduced”. Also, in data set [1] (setting [5]), the NLRP1 protein expression result is “significant reduction”, the NLRP3 protein expression entry is listed as “significant reduction” and the “serum IL1β levels” value is given as “significant reduction”. For the same compound, in data set [1] (setting [6]), the age-associated hepatic fibrosis entry was “significantly reduced” and the age-associated hepatic steatosis result is reported as “significantly reduced”. Besides, in data set [1] (old mice, 10 mg/Kg/day i.p., vs control, Figure 11), the “glucose levels upon glucose challenges at the OGTT peak (>15 min)” value is reported as “significantly decreased”. Also, in data set [1] (setting [7]), the serum leptin/adiponectin entry was “reduced”, the “serum levels of adiponectin” value is reported as “reduced” and the “serum levels of leptin” value is given as “reduced”. Also, the “expression of NLRP3” value on NLRP3 (LPS + ATP induction, dose-dependent, Figure 3) is reported as “inhibited the expression”. For the same compound, the “expression of the inflammasome activation-associated protein IL-1β” value on NLRP3 (LPS+ATP or VbP induction, dose-dependent, Figure 3) is on record as “reduced the expression”. Moreover, the “inhibitory capacity (expression of NLRP1, NLRP3, IL-1β and IL-18)” value on NLRP3 (compared to MCC950 and C5, Figure 5 and Figure 8) is reported as “increased inhibitory capacity”. Also, in data set [2] (setting [8]), the AMH receptor result was “increase”, the “Follicle-stimulating hormone (FSH)” value is reported as “reduction”, the “antimüllerian hormone (AMH)” value is “significant increase” and the “protein levels of active Caspase 1” value is “decreased”. Also, in data set [2] (setting [8]), the “protein levels of active IL-1β” value was “decreased”. In data set [2] (compared to NLRP1 KO and NLRP3 KO mice, Figure 15), the “improvement of the ovarian reserve by AMH hormone” value is listed as “significantly higher improvement”. Also, in data set [2] (setting [9]), the “percentage of atretic follicles” value is recorded as “lower percentage” and the percentage of follicles result is listed as “higher percentage”. In addition, in data set [3], the “modulation of other inflammasome proteins such as AIM-2, NLRP2, NLRC3 or NLRC4” value is reported as “did not result in the modulation”. For the same compound, the “expression of NLRP1” value at NLRP1 is on record as “inhibited the expression”. Further, the IC50 with NLRP3 inflammasome (Figure 4A, read-out: IC50 (IL-1β) release into the culture medium) was 5.38 nM. Moreover, the IC50 in the data set on NLRP3 inflammasome (Figure 4B, read-out: IC50 (IL-18) release into the culture medium) was 4450 nM.

For `CS(=O)(=O)NCc1ccc(Cl)cc1` [Compound C4, N-(4-chlorobenzyl) methanesulfonamide], the IL-1β cytokine release result in the data set with NLRP3 inflammasome is recorded as “reduction”.

On to `O=S(=O)(Cc1ccc2ccccc2c1)NCc1ccccc1` [Compound C7, N-benzyl-1-(naphthalen-2-yl) methanesulfonamide], for which the IL-1β cytokine release entry in the data set with NLRP3 inflammasome is recorded as “reduction”.

By IC50 is commonly meant the concentration at which inhibition is half-maximal.
